In the supplement of paper PMC11208160:

Test: recombinant barcode read abundance after kanamycin selection (control-corrected) (log10(CPM+1)); higher = more efficient recombination; sequences stand for … in AGTGCAGAGAAAATCGGCCAGTTTTCTCTGCCTGCAGTCCGCATGCCGT…AGATTTATGCAGCGGACTGCCTTTCTCCCAAAGTGATAAACCGGACAGTATCATGGACCGGTTTTCCCGGTAATCCGTATTTGCAAGGTTGGTTTCACT; site = the 11-nt target
Method in brief: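 In a pooled screen in E. coli, targets were paired with target-binding loops of the IS621 bridge RNA. Each oligo carried a promoter, a target, a barcode and the first 104 bridge RNA bases driven by J23119, and was Gibson-cloned into a vector holding the remaining 73 bp and a T7-inducible recombinase before co-electroporation with a donor plasmid. Duplicate platings went onto chloramphenicol/ampicillin LB agar as the control or onto chloramphenicol/ampicillin/kanamycin with 0.1 mM IPTG. Recombination efficiency is the averaged, control-corrected count per million of barcodes at recombinant junctions, given as log10(CPM+1).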
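Also: IS621 recombinase and bridge RNA in Escherichia coli cells.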

TCGAACCCTTGGGTTCTAACCTGTTGCGA (site TCGGACCCTTC)
recombinant barcode read abundance (log10): 0.114

TCGAACCCTTGGGTTCTAACCTGTTGCGA (site TCGTACCCTTC)
recombinant barcode read abundance (log10): 0.0144

TCGAACCCTTGGGTTCTAACCTGTTGCTT (site GCGAACCCTAA)
recombinant barcode read abundance (log10): 0.0343

TCGAACCCTTGGGTTCTAACCTGTTGCTT (site TCGAACCCTAA)
recombinant barcode read abundance (log10): 0.258

TCGAAGGCTTGGGTTCTAACCTGTTGCCT (site TCAAAGGCTAG)
recombinant barcode read abundance (log10): 0.411

TCGAAGGCTTGGGTTCTAACCTGTTGCCT (site TCCAAGGCTAG)
recombinant barcode read abundance (log10): 0.0717

TCGAAGGCTTGGGTTCTAACCTGTTGCCT (site TCGAAGGCTAG)
recombinant barcode read abundance (log10): 0.382

TCGAAGGCTTGGGTTCTAACCTGTTGCCT (site TCTAAGGCTAG)
recombinant barcode read abundance (log10): 0.0236

TCGAATCCTTGGGTTCTAACCTGTTGCCT (site TCGAAACCTAG)
recombinant barcode read abundance (log10): 0.0251

TCGAATCCTTGGGTTCTAACCTGTTGCCT (site TCGAACCCTAG)
recombinant barcode read abundance (log10): 0.0582

TCGAATCCTTGGGTTCTAACCTGTTGCCT (site TCGAAGCCTAG)
recombinant barcode read abundance (log10): 0.0385

TCGAATCCTTGGGTTCTAACCTGTTGCCT (site TCGAATCCTAG)
recombinant barcode read abundance (log10): 0.173

TCGAATGCTTGGGTTCTAACCTGTTGCCT (site TCGAATGCTAG)
recombinant barcode read abundance (log10): 0.0629

TCGAATGCTTGGGTTCTAACCTGTTGCCT (site TCGGATGCTAA)
recombinant barcode read abundance (log10): 0.0663

TCGACGCCTTGGGTTCTAACCTGTTGCTT (site ACGACGTCTAA)
recombinant barcode read abundance (log10): 0.0317

TCGACGCCTTGGGTTCTAACCTGTTGCTT (site TCGACGCCTAA)
recombinant barcode read abundance (log10): 0.145

TCGAGAGCTTGGGTTCTAACCTGTTGCTA (site TCGAGAGCTCG)
recombinant barcode read abundance (log10): 0.183

TCGAGAGCTTGGGTTCTAACCTGTTGCTA (site TCGAGAGCTTA)
recombinant barcode read abundance (log10): 0.446

TCGAGTGCTTGGGTTCTAACCTGTTGCCT (site TCGAGTACTAG)
recombinant barcode read abundance (log10): 0.187

TCGAGTGCTTGGGTTCTAACCTGTTGCCT (site TCGAGTCCTAG)
recombinant barcode read abundance (log10): 0.19

TCGAGTGCTTGGGTTCTAACCTGTTGCCT (site TCGAGTGCTAG)
recombinant barcode read abundance (log10): 0.0982

TCGAGTGCTTGGGTTCTAACCTGTTGCCT (site TCGAGTTCTAG)
recombinant barcode read abundance (log10): 0

TCGCAGACTTGGGTTCTAACCTGTTGCCT (site CCGCAGACTTG)
recombinant barcode read abundance (log10): 0.54

TCGCAGACTTGGGTTCTAACCTGTTGCCT (site TCGCAGACTAG)
recombinant barcode read abundance (log10): 0.286

TCGCATTCTTGGGTTCTAACCTGTTGCAT (site TCGCATTCTAT)
recombinant barcode read abundance (log10): 0.159

TCGCATTCTTGGGTTCTAACCTGTTGCAT (site TCGCGTTCTAA)
recombinant barcode read abundance (log10): 0.198

TCGCGAACTTGGGTTCTAACCTGTTGCCT (site TCGCGAACTAG)
recombinant barcode read abundance (log10): 0.252

TCGCGAACTTGGGTTCTAACCTGTTGCCT (site TCGGGAACTAG)
recombinant barcode read abundance (log10): 0

TCGCGTACTTGGGTTCTAACCTGTTGCAT (site GCTCGTACTAT)
recombinant barcode read abundance (log10): 0.0605

TCGCGTACTTGGGTTCTAACCTGTTGCAT (site TCGCGTACTAT)
recombinant barcode read abundance (log10): 0.189

TCGCGTCCTTGGGTTCTAACCTGTTGCAA (site TAGCGTCCTGT)
recombinant barcode read abundance (log10): 0.119

TCGCGTCCTTGGGTTCTAACCTGTTGCAA (site TCGCGTCCTTT)
recombinant barcode read abundance (log10): 0.402

TCGCGTCCTTGGGTTCTAACCTGTTGCAG (site TCACGTCCTCT)
recombinant barcode read abundance (log10): 0.231

TCGCGTCCTTGGGTTCTAACCTGTTGCAG (site TCGCGTCCTCT)
recombinant barcode read abundance (log10): 0.379

TCGCGTGCTTGGGTTCTAACCTGTTGCGG (site CATTCCACTAG)
recombinant barcode read abundance (log10): 0.0782

TCGCGTGCTTGGGTTCTAACCTGTTGCGG (site TCGCGTGCTCC)
recombinant barcode read abundance (log10): 0.363

TCGCGTTCTTGGGTTCTAACCTGTTGCTT (site TCGCATTCTAT)
recombinant barcode read abundance (log10): 0.217

TCGCGTTCTTGGGTTCTAACCTGTTGCTT (site TCGCGTTCTAA)
recombinant barcode read abundance (log10): 0.677

TCGCTAGCTTGGGTTCTAACCTGTTGCCT (site ACGCTAGCTAG)
recombinant barcode read abundance (log10): 0.0632

TCGCTAGCTTGGGTTCTAACCTGTTGCCT (site CCGCTAGCTAG)
recombinant barcode read abundance (log10): 0.4

TCGCTAGCTTGGGTTCTAACCTGTTGCCT (site GCGCTAGCTAG)
recombinant barcode read abundance (log10): 0.0173

TCGCTAGCTTGGGTTCTAACCTGTTGCCT (site TCGCTAGCTAG)
recombinant barcode read abundance (log10): 0.0976

TCGTATACTTGGGTTCTAACCTGTTGCGG (site TAGTATACTCA)
recombinant barcode read abundance (log10): 0.193

TCGTATACTTGGGTTCTAACCTGTTGCGG (site TCGTATACTCC)
recombinant barcode read abundance (log10): 0.396

TCGTGAGCTTGGGTTCTAACCTGTTGCCT (site TAGTGAGCTAG)
recombinant barcode read abundance (log10): 0.0646

TCGTGAGCTTGGGTTCTAACCTGTTGCCT (site TCGTGAGCTAG)
recombinant barcode read abundance (log10): 0.226

TCGTGAGCTTGGGTTCTAACCTGTTGCTG (site GGTGACCCTAT)
recombinant barcode read abundance (log10): 0.147

TCGTGAGCTTGGGTTCTAACCTGTTGCTG (site TCGTGAGCTCA)
recombinant barcode read abundance (log10): 0.301

TCGTGCCCTTGGGTTCTAACCTGTTGCCT (site TCGTGCACTAG)
recombinant barcode read abundance (log10): 0.0746

TCGTGCCCTTGGGTTCTAACCTGTTGCCT (site TCGTGCCCTAG)
recombinant barcode read abundance (log10): 0.398

TCGTGCCCTTGGGTTCTAACCTGTTGCCT (site TCGTGCGCTAG)
recombinant barcode read abundance (log10): 0.165

TCGTGCCCTTGGGTTCTAACCTGTTGCCT (site TCGTGCTCTAG)
recombinant barcode read abundance (log10): 0.0522

TCGTTCGCTTGGGTTCTAACCTGTTGCCG (site GTCAGATCTAA)
recombinant barcode read abundance (log10): 0.37

TCGTTCGCTTGGGTTCTAACCTGTTGCCG (site TCGTTCGCTCG)
recombinant barcode read abundance (log10): 0.0881

TCTAAACCTTGGGTTCTAACCTGTTGCAT (site TCTAAACCTAT)
recombinant barcode read abundance (log10): 0.197

TCTAAACCTTGGGTTCTAACCTGTTGCAT (site TCTAACCCTAT)
recombinant barcode read abundance (log10): 0.142

TCTAAACCTTGGGTTCTAACCTGTTGCAT (site TCTAAGCCTAT)
recombinant barcode read abundance (log10): 0.0795

TCTAAACCTTGGGTTCTAACCTGTTGCAT (site TCTAATCCTAT)
recombinant barcode read abundance (log10): 0.229

TCTAAGACTTGGGTTCTAACCTGTTGCGC (site CTACCCTCTAG)
recombinant barcode read abundance (log10): 0.0242

TCTAAGACTTGGGTTCTAACCTGTTGCGC (site TCTAAGACTGC)
recombinant barcode read abundance (log10): 1.26

TCTAAGCCTTGGGTTCTAACCTGTTGCAT (site TCTAAACCTAT)
recombinant barcode read abundance (log10): 0.152

TCTAAGCCTTGGGTTCTAACCTGTTGCAT (site TCTAACCCTAT)
recombinant barcode read abundance (log10): 0.259

TCTAAGCCTTGGGTTCTAACCTGTTGCAT (site TCTAAGCCTAT)
recombinant barcode read abundance (log10): 0.531

TCTAAGCCTTGGGTTCTAACCTGTTGCAT (site TCTAATCCTAT)
recombinant barcode read abundance (log10): 0.0292

TCTACCTCTTGGGTTCTAACCTGTTGCCT (site TCTACATCTAG)
recombinant barcode read abundance (log10): 0.0227

TCTACCTCTTGGGTTCTAACCTGTTGCCT (site TCTACCTCTAG)
recombinant barcode read abundance (log10): 1.19

TCTACCTCTTGGGTTCTAACCTGTTGCCT (site TCTACGTCTAG)
recombinant barcode read abundance (log10): 0.102

TCTACCTCTTGGGTTCTAACCTGTTGCCT (site TCTACTTCTAG)
recombinant barcode read abundance (log10): 0.0484

TCTACGTCTTGGGTTCTAACCTGTTGCCT (site TCTACATCTAG)
recombinant barcode read abundance (log10): 0.0403

TCTACGTCTTGGGTTCTAACCTGTTGCCT (site TCTACCTCTAG)
recombinant barcode read abundance (log10): 0.00686

TCTACGTCTTGGGTTCTAACCTGTTGCCT (site TCTACGTCTAG)
recombinant barcode read abundance (log10): 0.168

TCTACGTCTTGGGTTCTAACCTGTTGCCT (site TCTACTTCTAG)
recombinant barcode read abundance (log10): 0.126

TCTCACCCTTGGGTTCTAACCTGTTGCCT (site TCTCACCCTAG)
recombinant barcode read abundance (log10): 0.516

TCTCACCCTTGGGTTCTAACCTGTTGCCT (site TCTGATCCTAG)
recombinant barcode read abundance (log10): 0.0773

TCTCATTCTTGGGTTCTAACCTGTTGCGT (site TCTAATTCTAC)
recombinant barcode read abundance (log10): 0.0146

TCTCATTCTTGGGTTCTAACCTGTTGCGT (site TCTCATTCTAC)
recombinant barcode read abundance (log10): 0.937

TCTCATTCTTGGGTTCTAACCTGTTGCGT (site TCTGATTCTAC)
recombinant barcode read abundance (log10): 0.163

TCTCATTCTTGGGTTCTAACCTGTTGCGT (site TCTTATTCTAC)
recombinant barcode read abundance (log10): 0.0829

TCTCCGCCTTGGGTTCTAACCTGTTGCCT (site TCTCAGCCTAG)
recombinant barcode read abundance (log10): 0.139

TCTCCGCCTTGGGTTCTAACCTGTTGCCT (site TCTCCGCCTAG)
recombinant barcode read abundance (log10): 0.431

TCTCCGCCTTGGGTTCTAACCTGTTGCCT (site TCTCGGCCTAG)
recombinant barcode read abundance (log10): 0.0901

TCTCCGCCTTGGGTTCTAACCTGTTGCCT (site TCTCTGCCTAG)
recombinant barcode read abundance (log10): 0.0964

TCTCGATCTTGGGTTCTAACCTGTTGCAT (site CCTCGATCTAT)
recombinant barcode read abundance (log10): 0.0525

TCTCGATCTTGGGTTCTAACCTGTTGCAT (site TCTCGATCTAT)
recombinant barcode read abundance (log10): 0.273

TCTCGTCCTTGGGTTCTAACCTGTTGCTA (site AGCAACACTCT)
recombinant barcode read abundance (log10): 0.226

TCTCGTCCTTGGGTTCTAACCTGTTGCTA (site TCTCGTCCTTA)
recombinant barcode read abundance (log10): 0.0623
